{"source": "patent US6686181B1", "about": "“Method for the production of L-amino acids from their racemic N-aceytyl-D, L-derivatives by enzymatic racemate cleavage by means of isolated recombinant enzymes” (Aventis Corporation GmbH, priority 1999, dated 2004)", "data": [{"test_system": "deac1 protein", "experiment": "Substrate specificity and stereoselectivity of the purified deac1 enzyme (free amino acid formed, amino acid analyzer)", "format": "biochemical, Stenotrophomonas sp.", "conditions": "5 μg purified enzyme, 25 mM substrate, pH 7.5, 37° C., 1 h; specific activity with hippuric acid set equal to 100%", "procedure": "(§1) For the investigation of substrate specificity and stereospecificity of the deac1 protein, 5 μg each of purified enzyme were incubated in 20 μl batches in 10 mM NaCl, 10 mM Na phosphate, pH=7.5 with 25 mM each of the N-acetyl-L-amino acids or of the corresponding D enantiomers mentioned in Table 1. For comparison, hippuric acid (N-benzoylglycine), the natural substrate of deacetylase, was employed. […] Table 1 indicates the relative deacetylase activities for the L-enantiomers of the various substrates.", "units": {"Rel. activity": "%"}, "values": [{"smiles": "CC(=O)N[C@@H](Cc1ccccc1)C(=O)O", "note": "[N-Ac-L-phenylalanine]", "Rel. activity": 24}, {"smiles": "CC(=O)N1CCC[C@H]1C(=O)O", "note": "[N-Ac-L-proline]", "Rel. activity": 0}, {"smiles": "CC(=O)N[C@@H](CO)C(=O)O", "note": "[N-Ac-L-serine]", "Rel. activity": 4}, {"smiles": "CC(=O)N[C@@H](Cc1c[nH]c2ccccc12)C(=O)O", "note": "[N-Ac-L-tryptophan]", "Rel. activity": 0.4}, {"smiles": "CSCC[C@H](NC(C)=O)C(=O)O", "note": "[N-Ac-L-methionine]", "Rel. activity": 0}]}, {"test_system": "deac1 protein", "experiment": "Substrate specificity and stereoselectivity of the purified deac1 enzyme (free amino acid formed, amino acid analyzer)", "format": "biochemical, Stenotrophomonas sp.", "conditions": "25 mM substrate, 37° C., 1 h", "procedure": "as §1", "values": [{"smiles": "CC(=O)N[C@@H](Cc1ccccc1)C(=O)O", "note": "[N-Ac-L-phenylalanine]", "cleavage of substrate by the deac1 enzyme (in words)": "cleaves"}, {"smiles": "CC(=O)N[C@@H](CCC(=O)O)C(=O)O", "note": "[N-Ac-L-glutamic acid]", "cleavage of substrate by the deac1 enzyme (in words)": "cleaves"}, {"smiles": "O=C(O)CNC(=O)c1ccccc1", "note": "[Hippuric acid (N-benzoylglycine), N-benzoylglycine, reference compound]", "cleavage of substrate by the deac1 enzyme (in words)": "cleaves"}, {"smiles": "CC(=O)N[C@@H](Cc1c[nH]cn1)C(=O)O", "note": "[N-Ac-L-histidine]", "cleavage of substrate by the deac1 enzyme (in words)": "cleaves"}, {"smiles": "CC(=O)N[C@@H](CCP(C)(=O)O)C(=O)O", "note": "[N-Ac-L-phosphinothricin]", "cleavage of substrate by the deac1 enzyme (in words)": "cleaves"}, {"smiles": "CC(=O)N[C@@H](CCC(N)=O)C(=O)O", "note": "[N-Ac-L-glutamine]", "cleavage of substrate by the deac1 enzyme (in words)": "cleaves"}, {"smiles": "CC(=O)N[C@@H](CCCN)C(=O)O", "note": "[N-Ac-L-ornithine]", "cleavage of substrate by the deac1 enzyme (in words)": "cleaves"}, {"smiles": "CC(=O)NCC(=O)O", "note": "[N-Ac-glycine]", "cleavage of substrate by the deac1 enzyme (in words)": "cleaves"}, {"smiles": "CC(=O)N[C@@H](CC(C)C)C(=O)O", "note": "[N-Ac-L-leucine]", "cleavage of substrate by the deac1 enzyme (in words)": "cleaves"}]}]}
